Laboratory results: article PMC5007466, “VCP recruitment to mitochondria causes mitophagy impairment and neurodegeneration in models of Huntington's disease” (Nature Communications, 2016)

Tests used:
HdhQ7 striatal cells = assay: Total GFP-LC3B protein level; assay type: cell-based, mouse; details: Flag-VCP + GFP-LC3B, 36 h
Method: Protein concentrations were determined by Bradford assay. Protein was resuspended in Laemmli buffer, loaded on SDS–PAGE, and transferred onto nitrocellulose membranes. Membranes were probed with the indicated antibodies, followed by visualization with ECL. Representative blots have been cropped for presentation. Images of full-size blots are presented in Supplementary Fig. 9. […]
mouse striatal cells were treated with thapsigargin (1μM) or tunicamycin (10μ g/ml) for 16 hours i n the presence or absence of HV -3 (3 µM). GRP78 total protein levels were determined by western blot analysis. Representative blots of three independent experiments are shown. Actin was used here as a loading control. (b) Tw e n t y -four hours of serum starvation was performed in HD mouse striatal cells.
Caspase-3 activity analysis was performed in the indicated groups. Data are mean ± SEM of three independent experiments. (c) Flag-VCP and GFP-LC3B were co-transfected into HdhQ7 striatal cells.
Total lysates were isolated after 36 hours of transfection. The GFP -LC3B levels were examined by western blot analysis. Actin was used as a loading control. Histogram: quantitation of GFP-LC3B total protein level. Data are mean ± SEM of three independent experiments.
(1 picture or pasted object on this page, not shown here)

[1] = test system: HdhQ111 mouse striatal cells; assay: HMGB1 release after serum withdrawal; assay type: cell-based; details: 24 h serum withdrawal, 3 μM
Method: (§1) HdhQ7 and Q111 mouse striatal cells were treated with the HV-3 peptide or the control peptide TAT (3 μM, each) in an FBS-free DMEM medium or in DMEM containing 10% serum for 24 h. Medium from the cultured cells was harvested. Proteins from the medium were purified using Amicon Ultra 0.5 ml centrifugal filters (Millipore). HMGB1 release into the medium was then analysed by Western blotting with anti-HMGB1 antibody. In parallel, cell death was determined by measuring LDH release into the culture medium, using LDH-Cytotoxicity Assay Kit II (Roche, USA) by following the manufacturer's instruction.

[2] = test system: HdhQ111 / HdhQ7 mouse striatal cells; assay: LDH release (cell death) after serum withdrawal; assay type: cell-based
Method: as §1

[3] = test system: wt mice (R6/2 littermates); assay: Motor ability, body weight, life span of wt littermates; assay type: in vivo, mouse; details: 3 mg kg^−1 per day, 5–13 weeks of age
Method: Male hemizygous R6/2 mice (Tg) and their age-matched wt littermates (5-week-old) were implanted with a 28-day osmotic pump (Alzet, Cupertino CA) containing TAT control peptide or HV-3 peptide, which delivered peptides to the mice at a rate of 3 mg kg^−1 per day. The first pump was implanted subcutaneously in the back of 5-week-old mice between the shoulders and replaced once, after 4 weeks.
Gross locomotor activity was assessed in R6/2 mice and age-matched wt littermates at the ages of 13 weeks and in YAC128 mice and age-matched wt littermates at the ages of 2, 3, 6, 9, and 12 months. In an activity chamber (Omnitech Electronics, Inc), mice were placed in the center of the chamber and allowed to explore while being tracked by an automated beam system (Vertax, Omnitech Electronics Inc). Distance moved, horizontal, vertical, and rearing activities were recorded. Because R6/2 mice were sensitive to changes in environment and handling, we only conducted one-hour locomotor activity analysis for R6/2 mice and wt littermates. We performed 24 h of locomotor activity analysis for YAC128 mice and their wt littermates.
The body weight and survival rate of HD mice and wt littermates were recorded throughout the study period.

[4] = test system: Cathepsin B in HdhQ111 mouse striatal cells; assay: Lysosomal Cathepsin B activity; assay type: cell-based; details: 3 uM/day for 3 days
Method: Figure 5 Treatment of HV-3 reduces excessive mitophagy in HD cell cultures and HD mouse brains. (a) HdhQ7 and HdhQ111 cells were treated with control siRNA (con) or VCP siRNA (siVCP) for 48 h. Mitochondria were isolated and LC3 mitochondrial levels were determined by WB. Representative blots are from three independent experiments. The quantitation of LC3 II levels on mitochondria is provided on the right. VADC was used as a loading control. (b) Flag-VCP and GFP-LC3B were co-transfected into wild-type striatal cells. Mitochondria were isolated after 36 h of transfection. The GFP-LC3B levels on mitochondria were examined by WB. VDAC was used as a loading control. Representative blots are from three independent experiments. Histogram: quantitation of GFP-LC3B mitochondrial protein level. HdhQ7 and HdhQ111 cells were treated with control peptide TAT or peptide HV-3 (3 uM/day for 3 days). (c) HdhQ111 cells were transfected with GFP-LC3B for 24 h. The number of GFP-LC3B puncta was quantitated and shown in the histogram. Scale bars: 10 μm. (d) Enzyme activity of lysosomal Cathepsin B was measured using a Cathepsin B assay kit. […] (e) Mitochondrial mass was measured by the fluorescent density of Mitotracker green. […] Histogram: the number of mitophagosomes per 100 μm^2 was counted and quantitated. Fifteen random areas in the striatum of each animal were analyzed. […]

CSCC[C@H](NC(=O)[C@@H](NC(=O)[C@H](CC(C)C)NC(=O)[C@@H](NC(=O)[C@H](Cc1c[nH]cn1)NC(=O)CCCCCNC(=O)[C@H](CCCNC(=N)N)NC(=O)[C@H](CCCNC(=N)N)NC(=O)[C@H](CCCNC(=N)N)NC(=O)[C@H](CCC(N)=O)NC(=O)[C@H](CCCNC(=N)N)NC(=O)[C@H](CCCNC(=N)N)NC(=O)[C@H](CCCCN)NC(=O)[C@H](CCCCN)NC(=O)[C@H](CCCNC(=N)N)NC(=O)CNC(=O)[C@@H](N)Cc1ccc(O)cc1)C(C)C)C(C)C)C(=O)N[C@@H](CS)C(=O)N[C@@H](C)C(=O)N[C@H](C(N)=O)[C@@H](C)O [HV-3]
total GFP-LC3B protein level (HdhQ7 striatal cells): no effect on the total protein level of GFP-LC3B | HMGB1 release [1]: reduced the release of high mobility group box 1 (HMGB1) | LDH release ([2]; HdhQ111 cells, 24 h serum withdrawal, 3 μM): reduced the release of high mobility group box 1 (HMGB1) and lactate dehydrogenase (LDH) | cell survival rate, wt ([2]; wt counterparts of the HD models): only minor effects | motor ability, body weight, life span of wt mice [3]: no effects on motor ability, body weight, or life span in wt mice | Cathepsin B activity [4]: reduced by treatment with HV-3
